Laboratory results from patent US11266715B2, “C3A receptor agonists for use against ischemic brain injury, stroke, traumatic brain injury, spinal cord injury and neurodegenerative disorders” (priority 2016, dated 2022).

Test system: mice subjected to neonatal HI injury
Test: Cue-induced fear conditioning after neonatal HI injury, 7 days intranasal treatment
Type: in vivo, mouse
Protocol: In the long-term study (7 days of intranasal treatment), […] of wild-type (WT) and C3aR^−/− mice subjected to neonatal HI injury and treated with either C3a or PBS were used; WT HI-C3a (n=5), WT HI-PBS (n=8), C3aR^−/− HI-C3a (n=7), C3aR^−/− HI-PBS (n=8). These mice were tested in a cue-induced fear conditioning test at P50 and brains were collected at P51 (FIG. 7A).
Neonatal HI injury was induced on postnatal day 9 (P9), as previously described with modifications for mice (Hedtjärn et al., 2002; Rice et al., 1981; Sheldon et al., 1998). Mice were anesthetized with 3.5% isoflurane (Baxter Medical, Kista, Sweden) for induction and 1.5% thereafter, in 1:1 oxygen and nitrous oxide. The left common carotid artery was dissected and permanently ligated with a prolene suture (6.0). […]
Cue-induced fear conditioning with a shock-paired tone and light cue was performed on P49 and P50 as previously described (Järlestedt et al., 2011). […] Freezing behaviour, a defensive response to a perceived threat, was defined as a complete lack of movement and quantified by scoring freezing behaviour (on video footage) as present or absent once every 10 s for 2 min. […] On P50, animals were again placed in the conditioning box and freezing behaviour was measured for 2 min. Following this, the shock-paired tone and light were presented for 30 s and freezing behaviour was then measured again for 2 min. […]

With “C3a: Purified human C3a peptide (Complement Technologies), C3a receptor agonist, amino acid sequence SEQ ID NO: 1” the “extent of freezing, C3a vs PBS” value (C3aR−/− mice, same protocol) was “did not differ” and the “freezing behavior after the conditioned cue vs HI PBS-treated mice” value (WT mice, intranasal C3a once daily 7 days from 1 h after HI, p<0.05) was “significantly increased freezing behavior”.
